Measured values taken from paper PMC2666621 (Current drug metabolism, 2009).

Columns and labels:
[1] = molecular target: T1, CHLαGcT (cholesterol α-glucosyltransferase; HP0421) (Helicobacter pylori, UniProt O25175); experiment: glucosyltransferase inhibition assay; type: biochemical; settings: UDP-Glc 3.6 μM, cholesterol 400 μM (so in the source); cited from earlier work
[2] = molecular target: T1, CHLαGcT (cholesterol α-glucosyltransferase; HP0421); experiment: product inhibition, Lineweaver-Burk; type: biochemical; settings: varied UDP-Glc; competitive with UDP-Glc

CCCCCCCCO[C@H]1O[C@H](CO)[C@H](O)[C@H](O[C@@H]2O[C@H](CO)[C@H](O)[C@H](O[C@]3(C(=O)O)C[C@H](O)[C@@H](NC(C)=O)[C@H]([C@H](O)[C@H](O)CO)O3)[C@H]2O)[C@H]1NC(C)=O [NeuAcα2→3Galβ1→3GalNAcα1→octyl]
IC50 [1]: 1090 µM

CC(=O)N[C@H]1[C@H](OC[C@H]2O[C@H](Oc3ccc([N+](=O)[O-])cc3)[C@H](NC(C)=O)[C@@H](O[C@@H]3O[C@H](CO)[C@H](O)[C@H](O)[C@H]3O)[C@H]2O)O[C@H](CO)[C@@H](O)[C@@H]1O [GlcNAcβ1→6(Galβ1→3)GalNAcα1→p-nitrophenol]
IC50 [1]: 2210 µM

CCCCCCCCO[C@H]1O[C@H](CO[C@@H]2O[C@H](CO)[C@@H](O[C@@H]3O[C@H](CO)[C@H](O[C@H]4O[C@H](CO)[C@@H](O)[C@H](O)[C@H]4NC(C)=O)[C@H](O)[C@H]3O)[C@H](O)[C@H]2NC(C)=O)[C@H](O)[C@H](O[C@@H]2O[C@H](CO)[C@H](O)[C@H](O)[C@H]2O)[C@H]1NC(C)=O [GlcNAcα1→4Galβ1→4GlcNAcβ1→6(Galβ1→3)GalNAcα1→octyl]
IC50 [1]: 470 µM

O=c1ccn([C@@H]2O[C@H](COP(=O)(O)OP(=O)(O)O)[C@@H](O)[C@H]2O)c(=O)[nH]1 [UDP]
product inhibition, Lineweaver-Burk [2]: inhibition profile of UDP in the presence of UDP-Glc intersected at the Y-axis, indicating competitive inhibition

CC(=O)N[C@H]1[C@@H](Oc2ccc([N+](=O)[O-])cc2)O[C@H](CO)[C@H](O)[C@@H]1O[C@@H]1O[C@H](CO)[C@H](O)[C@H](O)[C@H]1O [Galβ1→3GalNAcα1→p-nitrophenol]
IC50 [1]: 7490 µM
